# Test results from patent publication US20080004282A1, “Compositions and methods for modulating gated ion channels” (PainCeptor Pharma Corporation, priority 2006, published 2008).
# Test system: chemically-induced spontaneous pain evoked by intraplantar injection of formalin
# Assay: Formalin test (model of acute tonic pain)
# Assay type: in vivo
# Details: rat; for pain intensity as evaluated by the flinching or licking behaviors: s.c. 30 min prior to formalin injection; for ED50: sc, s.c. 30 min prior to formalin, licking and biting episodes in phase IIa, read-out: ED50, effective dose where the pain score is reduced by half
# Source text: Model of Acute Tonic Pain
# This example describes a procedure for the in vivo assessment of the inhibitory activity of the compounds of the present invention.
# A number of well-established models of pain are described in the literature and are known to the skilled in the art (see, for example, Table 1). This example describes the use of the Formalin test.
# Male Sprague-Dawley rats are housed together in groups of three animals under standard conditions with unrestricted access to food and water. All experiments are conducted according to the ethical guidelines for investigations of experimental pain in conscious animals (Zimmerman, 1983)
# Assessment of formalin-induced flinching behavior in normal, uninjured rats (body weight 150-180 g) is made with the use of an Automated Nociception Analyser (University of California, San Diego, USA). Briefly, this involves placing a small C-shaped metal band (10 mm wide×27 mm long) on the hindpaw of the rat to be tested. The rats (four rats are included in each testing session) are then placed in a cylindrical plexiglass observation chamber (diameter 30.5 cm and height 15 cm) for 20 min for adaptation purposes prior to being administered drug or vehicle according to the experimental paradigm being followed. […] Rats are then returned to their separate observation chambers, each of which are in turn situated upon an enclosed detection device consisting of two electromagnetic coils designed to produce an electromagnetic field in which movement of the metal band could be detected. […] A sampling interval of 1 min is used and on the basis of the resulting response patterns 5 phases of nociceptive behaviour are identified and scored: first phase (P1; 0-5 min), interphase (Int; 6-15 min), second phase (P2; […]), phase 2A (P2A; 16-40 min) and phase 2B (P2B; 41-60 min).
# Nociceptive behavior is also determined manually every 5 min by measuring the amount of time spent in each of four behavioral categories: 0, treatment of the injected hindpaw is indistinguishable from that of the contralateral paw; 1, the injected paw has little or no weight placed on it; 2, the injected paw is elevated and is not in contact with any surface; 3, the injected paw is licked, bitten, or shaken. A weighted nociceptive score, ranging from 0 to 3 is calculated by multiplying the time spent in each category by the category weight, summing these products, and dividing by the total time for each 5 min block of time. […] On the basis of the resulting response patterns, […] of nociceptive behavior are identified and scored: first phase (P1; 0-5 min), interphase (Int; 6-15 min), second phase (P2; […]), phase 2A (P2A; 16-40 min) and phase 2B (P2B; 41-60 min). […]
Compound,pain intensity as evaluated by the flinching or licking behaviors,ED50 [mg/kg]
CCN1CCc2c(-c3cc(Cl)ccc3OC)cc(C#N)c(N)c2C1 [Compound 44],dose-dependent reduction,22
"CCN1CCc2c(-c3ccccc3)cc(C#N)c(N)c2C1 [Compound 12, 8-Amino-2-ethyl-5-phenyl-1,2,3,4-tetrahydro-isoquinoline-7-carbonitrile]",dose-dependent reduction,4
